Measured values from patent US20060079463A1 (priority 2003, published 2006).

Legend:
Mouse Hepatoma H22 = assay: Kunming mouse Hepatoma H22 model, in vivo tumor growth; details: for Compared to Glucose group Inhibition (%) / Compared to Saline group Inhibition (%) / Tumor size Mean ± SD: Table 6.2; for Compared to Glucose group Inhibition (%) / Compared to Saline group Inhibition (%) / Tumor size Mean ± SD / Tumor Size (Mean ± SD, g) / Tumor Inhibition (%): 10 days; for Tumor Size (Mean ± SD, g) / Tumor Inhibition (%): Table 2.2; for Tumor Inhibition (%): vs saline
Protocol: (§1) (2) Kunming mouse Hepatoma H22 model: Mouse Hepatoma H22 ascites tumor cells, 1×10E6 cells in 0.2 ml saline per mouse, were injected subcutaneously to the right axillary space of 5- to 6-week old Kunming mice.
(§2) C. […] The amount of either tested drug for one kg mouse was prepared as 10 ml solution, and 10 micro-liters per gram of mouse were injected intraperitoneally, once or twice daily, for 10 consecutive days for the Kunming mice with Sarcoma S-180 and Hepatoma H22, and for 15 consecutive days for C57BL/6 mice with melanoma B16. 50% glucose, 30 ml/kg, was given by gavage to selected groups of mice receiving the tested drug 60 to 90 minutes before each injection. One group of mice received saline only while another group of mice received the glucose treatment without the tested drug; these groups served as the saline-only control and the glucose-only control, respectively. A third group of mice received intraperitoneal injection of cyclophosphamide (CTX), or 5-Fluorouracil (5FU), 25 to 50 mg/kg body weight, was included in some experiments as positive control. At the end of the experiment, mouse body weight was taken, and the Sarcoma S-180, or Hepatoma H22 tumors were dissected and weighted, while the tumor size of melanoma B16 was measured using a caliper. Melanoma B16 tumor volume was calculated using the following equation: Tumor volume=S*S*L*0.5, where S is the short diameter, and L stands for long diameter of the tumor according to Beck M T et al. (Cancer Research 63:3598, 2003).

Mouse Sarcoma S-180 = assay: Kunming mouse Sarcoma S-180 model, in vivo tumor growth; details: for Tumor Size (Mean ± SD, g) / Tumor Inhibition (%) / Tumor Weight (Mean ± SD, g) / Tumor Inhibition Rate (%): 10 days; for Tumor Weight (Mean ± SD, g) / Tumor Inhibition Rate (%): Table 3.2
Protocol: (§3) (1) Kunming mouse Sarcoma S-180 model: Mouse Sarcoma S-180 ascites tumor cells, 1×10E6 cells resuspended in 0.2 ml saline per mouse, were injected subcutaneously to the right axillary space of 5- to 6-week old Kunming mice.
as §2

Mouse melanoma B16 = assay: C57BL/6 mouse melanoma B16 model, tumor growth; format: in vivo; details: for Tumor Size (Mean ± SD, mm3) / Tumor Inhibition (%): Table 4.2, 1 dose/day, 15 days; for Tumor Inhibition (%): vs saline
Protocol: (§4) (3) C57BL/6 mouse melanoma B16 model: Mouse melanoma B16 cells, 1×10E7 cells in 0.2 ml of saline per mouse, were injected subcutaneously into right axillary space of 6 to 8 week old C57BL/6 mice. The mice were randomly divided into groups after tumor cell inoculation.
as §2

[1] = Body weight of mice bearing Sarcoma S-180; details: CTX 30 mg/kg i.p., 1 dose/day, 10 days
Protocol: as §3, §2

[2] = Body weight of mice bearing Hepatoma H22; details: Table 2.1; CTX 25 mg/kg i.p., 1 dose/day, 10 days
Protocol: as §1
as §2, with “A third group of mice received intraperitoneal injection of cyclophosphamide (CTX), or 5-Fluorouracil (5FU), 25 to 50 mg/kg body weight, was included in some experiments as positive control.” left out

[3] = Body weight of mice with B16 melanoma; details: Table 4.1; CTX 50 mg/kg i.p., 1 dose/day, 15 days
Protocol: as §4
as §2, with “A third group of mice received intraperitoneal injection of cyclophosphamide (CTX), or 5-Fluorouracil (5FU), 25 to 50 mg/kg body weight, was included in some experiments as positive control.” left out

[4] = human, in vivo; cited from earlier work
[5] = system: human melanoma xenographts; details: a dose of MIBG under hyperglycemic conditions, SCID mice; cited from earlier work
[6] = Toxicity observation during URIN and MAIN administration in tumor-bearing mice; format: in vivo; details: i.p., up to 4480 mg/kg once or twice daily
Protocol: as §2

[7] = cited from earlier work
[8] = MAIN H 3750 mg/kg i.p., 2 doses/day, glucose pre-treatment
[9] = MAIN L 1500 mg/kg i.p., 2 doses/day, glucose pre-treatment
[10] = MAIN M 2500 mg/kg i.p., 2 doses/day, glucose pre-treatment
[11] = URIN 4480 mg/kg i.p., 2 doses/day, no glucose
[12] = URIN H 4480 mg/kg i.p., glucose pre-treatment
[13] = URIN L 1680 mg/kg i.p., glucose pre-treatment

## O=c1[nH]cc(F)c(=O)[nH]1 [5FU, 5-Fluorouracil]
Mouse Hepatoma H22; 5FU 25 mg/kg i.p., 1 dose/day
  Compared to Glucose group Inhibition (%): 71.4%
  Compared to Saline group Inhibition (%): 77.4%
  Tumor size Mean ± SD: 0.48 ± 0.25 g

## O=P1(N(CCCl)CCCl)NCCCO1 (stereo not shown) [CTX, cyclophosphamide]
Mouse Sarcoma S-180; Table 1.2, CTX 30 mg/kg i.p., 1 dose/day
  Tumor Size (Mean ± SD, g): 0.53 ± 0.14 g
Mouse Sarcoma S-180; Table 1.2, CTX 30 mg/kg i.p., 1 dose/day, vs saline
  Tumor Inhibition (%): 61.3%
Mouse Sarcoma S-180; CTX 30 mg/kg i.p., 1 dose/day
  Tumor Weight (Mean ± SD, g): 0.53 ± 0.22 g
Mouse Sarcoma S-180; CTX 30 mg/kg i.p., 1 dose/day, vs saline
  Tumor Inhibition Rate (%): 73.0%
Mouse Hepatoma H22; CTX 25 mg/kg i.p., 1 dose/day
  Tumor Size (Mean ± SD, g): 1.21 ± 0.37 g
  Tumor Inhibition (%): 48.1%
Mouse melanoma B16; CTX 50 mg/kg i.p.
  Tumor Size (Mean ± SD, mm3): 118 ± 100 mm3
  Tumor Inhibition (%): 97%
[1]; Table 1.1
  Body weight (Mean ± SD, g) End: 23.5 ± 1.7 g
  Body weight (Mean ± SD, g) Start: 21.9 ± 1.1 g
[1]; Table 3.1
  Body weight (Mean ± SD, g) End: 23.0 ± 2.9 g
  Body weight (Mean ± SD, g) Start: 21.4 ± 1.0 g
[2]
  Body weight (Mean ± SD, g) End: 32.6 ± 2.5 g
  Body weight (Mean ± SD, g) Start: 24.6 ± 1.0 g
[3]
  Body weight (Mean ± SD, g) End: 18.6 ± 1.6 g
  Body weight (Mean ± SD, g) Start: 20.3 ± 1.5 g

## C1N2CN3CN1CN(C2)C3.O=C(O)C(O)c1ccccc1 (stereo not shown) [MAIN, methenamine mandelate]
Mouse Sarcoma S-180; Table 5.2, MAIN H 3714 mg/kg i.p., 2 doses/day, glucose pre-treatment
  Tumor Size (Mean ± SD, g): 1.25 ± 0.41 g
Mouse Sarcoma S-180; Table 5.2, MAIN H 3714 mg/kg i.p., 2 doses/day, glucose pre-treatment, vs glucose group
  Tumor Inhibition (%): 45.9%
Mouse Sarcoma S-180; Table 5.2, MAIN L 1485 mg/kg i.p., 2 doses/day, glucose pre-treatment
  Tumor Size (Mean ± SD, g): 2.14 ± 0.60 g
Mouse Sarcoma S-180; Table 5.2, MAIN L 1485 mg/kg i.p., 2 doses/day, glucose pre-treatment, vs glucose group
  Tumor Inhibition (%): 7.4%
Mouse Sarcoma S-180; Table 5.2, MAIN M 2320 mg/kg i.p., 2 doses/day, glucose pre-treatment
  Tumor Size (Mean ± SD, g): 1.85 ± 0.62 g
Mouse Sarcoma S-180; Table 5.2, MAIN M 2320 mg/kg i.p., 2 doses/day, glucose pre-treatment, vs glucose group
  Tumor Inhibition (%): 19.9%
Mouse Hepatoma H22; [8]
  Compared to Glucose group Inhibition (%): 38.7%
  Compared to Saline group Inhibition (%): 51.4%
  Tumor size Mean ± SD: 1.03 ± 0.66 g
Mouse Hepatoma H22; [9]
  Compared to Glucose group Inhibition (%): 6.0%
  Compared to Saline group Inhibition (%): 25.5%
  Tumor size Mean ± SD: 1.58 ± 0.42 g
Mouse Hepatoma H22; [10]
  Compared to Glucose group Inhibition (%): 6.5%
  Compared to Saline group Inhibition (%): 25.5%
  Tumor size Mean ± SD: 1.57 ± 0.74 g
[4]
  Side effects resulting from long term use: negligible

## N=C(N)NCc1cccc(I)c1 [MIBG, m-Iodpbenzylguanidine]
[5]
  Reduction of extracellular pH of tumor: up to 0.59 units

## C1N2CN3CN1CN(C2)C3 [URIN, Methenamine]
Mouse Sarcoma S-180; Table 1.2, URIN 4480 mg/kg i.p., 2 doses/day, no glucose
  Tumor Size (Mean ± SD, g): 1.07 ± 0.31 g
Mouse Sarcoma S-180; Table 1.2, URIN 4480 mg/kg i.p., 2 doses/day, no glucose, vs saline
  Tumor Inhibition (%): 21.9%
Mouse Sarcoma S-180; URIN H 4480 mg/kg i.p., 2 doses/day, glucose pre-treatment
  Tumor Weight (Mean ± SD, g): 1.25 ± 0.41 g
Mouse Sarcoma S-180; URIN H 4480 mg/kg i.p., 2 doses/day, glucose pre-treatment, vs saline
  Tumor Inhibition Rate (%): 36.2%
Mouse Sarcoma S-180; URIN L 1680 mg/kg i.p., 2 doses/day, glucose pre-treatment
  Tumor Weight (Mean ± SD, g): 1.54 ± 0.56 g
Mouse Sarcoma S-180; URIN L 1680 mg/kg i.p., 2 doses/day, glucose pre-treatment, vs saline
  Tumor Inhibition Rate (%): 21.4%
Mouse Sarcoma S-180; URIN M 2800 mg/kg i.p., 2 doses/day, glucose pre-treatment
  Tumor Weight (Mean ± SD, g): 1.57 ± 0.50 g
Mouse Sarcoma S-180; URIN M 2800 mg/kg i.p., 2 doses/day, glucose pre-treatment, vs saline
  Tumor Inhibition Rate (%): 19.9%
Mouse Sarcoma S-180; administration of URIN
  In vivo growth of mouse tumor Sarcoma S-180 (conclusion): significantly inhibited
Mouse Hepatoma H22; [11]
  Tumor Size (Mean ± SD, g): 1.37 ± 0.39 g
  Tumor Inhibition (%): 41.2%
Mouse Hepatoma H22; administration of URIN
  In vivo growth of mouse tumor Hepatoma H22 (conclusion): significantly inhibited
Mouse melanoma B16; [12]
  Tumor Size (Mean ± SD, mm3): 2755 ± 1098 mm3
  Tumor Inhibition (%): 32.1%
Mouse melanoma B16; [13]
  Tumor Size (Mean ± SD, mm3): 3376 ± 1419 mm3
  Tumor Inhibition (%): 16.7%
Mouse melanoma B16; URIN M 2800 mg/kg i.p., glucose pre-treatment
  Tumor Size (Mean ± SD, mm3): 4241 ± 1834 mm3
Mouse melanoma B16; URIN M 2800 mg/kg i.p., glucose pre-treatment, value in bracket = increased rate
  Tumor Inhibition (%): (−14.6%)
Mouse melanoma B16; administration of URIN
  In vivo growth of mouse tumor B16 Melanoma (conclusion): significantly inhibited
[6]
  Death from drug toxicity: No mouse died of URIN toxicity
[7]; pH-neutral medium
  Stability in a pH-neutral medium: very stable
[7]; serum and normal tissue
  Liberation of formaldehyde in serum and normal tissue: does not liberate formaldehyde
